Data on two compounds can be found in paper PMC7712428, “Dimethoate Induces DNA Damage and Mitochondrial Dysfunction Triggering Apoptosis in Rat Bone-Marrow and Peripheral Blood Cells” (Toxics, 2020).

The structures appear in SMILES notation. Read-outs that look alike come from different tables or passages of the source.

One data set deals with Eosinophils. Conditions: for MMP loss (membrane potential loss): 72 h treatment. An excerpt: (§1) The experimental animals—Rattus norvegicus (Wistar strain; 8–10 weeks old; 120 ± 20 gm; males only) were acquired from Indian Institute of Integrative Medicine (IIIM-CSIR) (Jammu, India), quarantined, acclimatized and sacrificed as per standard practice conforming to the University Ethical Regulations. After acclimatization, rats were divided into five groups by stratified randomization with five animals per group. […] Distilled water was used to prepare dosing solutions of test agent and injected via intraperitoneal (i.p.) injection. At 24, 48 and 72 h post-dosing, 5 rats per duration were sacrificed and necessary tissues were isolated for different cytogenetic and molecular parameters. For CA assessment, separate experimental lot was used due to colchicine treatment.
(§2) WBCs were isolated by following the protocol of Lone et al.. Blood was collected in 0.1% EDTA from retro-orbital plexus of rat, followed by incubation for 30 min. 500 µL of blood was then added to a centrifuge tube with 1 mL FACS lysing solution. The blood was incubated for 10 min and centrifuged (2000 rpm, 10 min) at 25 °C. After discarding the supernatant, pellet was washed in 1mL FACS lysing solution followed by centrifuging at 2000 rpm for 5 min. Repeated this step twice and then pellet was put in 500 µL of PBS, leaving only WBCs.
(§3) Protocol of Majeed and colleagues was employed for flow cytometric measurements of change in Ψm. […] Leukocytes were identified via forward and side scatter.

The next data set relates to Neutrophils. Conditions: for MMP loss (membrane potential loss): 72 h treatment.
Excerpt: as §1, §2, §3

A further data set has as its system rat WBCs. Conditions: Mean ± SD, 40 mg/kgbw; for Sub-G1: cells percentage (apoptosis); for G1 / G2/M / S: cells percentage.
Excerpt: as §1, §2
Post completion of exposures, PBS was used to wash the harvested cells and fixed in cold ethanol (70%) for 48 h. Cells were digested by RNase (400 μg/mL) at 37 °C for 45 min. After incubating the cells with Propidium iodide (10 μg/mL), examined instantly on flow cytometer FACSAriaII (Becton Dickinson, San Jose, CA, USA). A total of 10,000 events were obtained for cell cycle analysis.

For another data set, the system named is Lymphocytes. The following applies: initial exposure time.
Excerpt: as §1, §2, §3

For data set [1] the following is noted: cited from earlier work.

Turning to `O=P1(N(CCCl)CCCl)NCCCO1` (centres unmarked) [Cyclophosphamide, reference compound], the “MMP loss (membrane potential loss)” value with Eosinophils worked out at 54%. The “P9: percentage of reduced mitochondrial membrane potential (MMP loss)” value in the data set on Neutrophils (Figure 7, one experiment, Positive Control) came out at 10.9%. Moreover, in the data set with Neutrophils (neutrophils), the “MMP loss (membrane potential loss)” value turned out to be 93.2%. In the data set with rat WBCs (24 h), the Sub-G1 is 91.3 ± 4.12 ***^,a, the G1 came to 6.06 ± 1.26, the G2/M was 2.53 ± 0.06 and the S amounted to 0.2 ± 0.01. In the data set with rat WBCs (48 h), the Sub-G1 is on record as 76.3 ± 4.16 ***^,a, the G1 was found to be 21.33 ± 2.41, the G2/M worked out at 1.3 ± 0.2 and the S amounted to 0.06 ± 0.01. Besides, in the data set with rat WBCs (72 h), the Sub-G1 is reported as 98.4 ± 6.01 ***^,a, the G1 stood at 0.87 ± 0.03, the G2/M is reported as 0.4 ± 0.02 and the S worked out at 0.33 ± 0.11.

Consider `CNC(=O)CSP(=S)(OC)OC` [DM, 0,0- Dimethyl S-(N-methylcarbamoylmethyl) phosphorodithiote], for which the MMP loss entry with Eosinophils (48 h exposure period (Figure 8)) was “around 30%”. Moreover, the “MMP loss (membrane potential loss)” value in the data set with Eosinophils and in the data set on Neutrophils (neutrophils) was “greater than 90%” each time. Further, the “maximum MMP loss” value in the data set on Neutrophils (neutrophils, initial exposure time) was “greater than 30%”; in the data set with Lymphocytes (lymphocytes), “greater than 30%”. Further, in the data set with Neutrophils (range over increased DM doses, initial exposure time), the “MMP loss in neutrophils” value is 2–40%. For the same compound, the “MMP loss in lymphocytes” value in the data set on Lymphocytes (range over increased DM doses) is 6.3–32.3%. The hazard label entry in data set [1] is listed as “Class II, moderately hazardous”.
